Biological target: T1, human recombinant P2X7 receptor (Homo sapiens, UniProt Q99572)
T1 construct: expressed in transfected cells
T1 sequence (Q99572 1-595): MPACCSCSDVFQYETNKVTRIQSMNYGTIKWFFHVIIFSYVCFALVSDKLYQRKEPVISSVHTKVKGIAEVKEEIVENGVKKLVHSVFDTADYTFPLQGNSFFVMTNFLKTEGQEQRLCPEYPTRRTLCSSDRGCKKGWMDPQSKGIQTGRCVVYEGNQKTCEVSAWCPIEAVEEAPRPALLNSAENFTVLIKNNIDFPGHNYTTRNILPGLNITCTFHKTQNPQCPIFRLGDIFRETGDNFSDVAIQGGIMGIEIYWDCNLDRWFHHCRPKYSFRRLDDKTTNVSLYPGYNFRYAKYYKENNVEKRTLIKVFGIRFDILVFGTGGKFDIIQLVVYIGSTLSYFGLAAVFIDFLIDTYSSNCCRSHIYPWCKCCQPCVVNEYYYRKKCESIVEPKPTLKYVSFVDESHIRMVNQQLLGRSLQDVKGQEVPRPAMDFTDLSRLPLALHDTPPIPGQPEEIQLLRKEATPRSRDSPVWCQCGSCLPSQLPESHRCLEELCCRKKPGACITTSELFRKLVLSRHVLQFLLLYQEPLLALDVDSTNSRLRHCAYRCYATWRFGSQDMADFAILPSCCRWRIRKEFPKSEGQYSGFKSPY
Assay: YO-PRO assay (YO-PRO-1 uptake) in HEK cells stably expressing P2X7
Assay type: cell-based
Conditions: HEK-293 cells expressing human recombinant P2X7 receptor; ATP 250 μM, 90 minutes; YO-PRO-1 fluorescence (FLIPR tetra); read-out: IC50 (antagonistic activity with respect to the P2X7 receptor)
Procedure, shortened: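 Antagonist serially diluted (duplicates) on P2X7-expressing HEK cells in buffer with 0.5 μM YO-PRO-1; dye uptake followed on FLIPR Tetra over four time points. IC50 from maximum fluorescence intensity versus compound concentration.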

IC50 | Compound
43 nM | O=C(NCC1(O)CCCCC1)c1cc(Oc2cccc(=O)[nH]2)ccc1Cl [Example 112, 2-Chloro-N-(1-hydroxy-cyclohexylmethyl)-5-(6-oxo-1,6-dihydro-pyridin-2-yloxy)-benzamide]
96 nM | Cn1c(Oc2ccc(Cl)c(C(=O)NCC3(O)CCCCC3)c2)cccc1=O [Example 113, 2-Chloro-N-(1-hydroxy-cyclohexylmethyl)-5-(1-methyl-6-oxo-1,6-dihydro-pyridin-2-yloxy)-benzamide]
100 nM | O=C(NCC1(O)CCCCC1)c1cc(Oc2ccncn2)ccc1Cl [Example 114, 2-Chloro-N-(1-hydroxy-cyclohexylmethyl)-5-(pyrimidin-4-yloxy)-benzamide]
191 nM | O=C(NCC1(O)CCCCC1)c1cc(Oc2ccnc(Cl)n2)ccc1Cl [Example 115, 2-Chloro-5-(2-chloro-pyrimidin-4-yloxy)-N-(1-hydroxy-cyclohexylmethyl)-benzamide]
172 nM | CNc1nccc(Oc2ccc(Cl)c(C(=O)NCC3(O)CCCCC3)c2)n1 [Example 116, 2-Chloro-N-(1-hydroxy-cyclohexylmethyl)-5-(2-methylamino-pyrimidin-4-yloxy)-benzamide]
427 nM | CN(C)c1nccc(Oc2ccc(Cl)c(C(=O)NCC3(O)CCCCC3)c2)n1 [Example 117, 2-Chloro-5-(2-dimethylamino-pyrimidin-4-yloxy)-N-(1-hydroxy-cyclohexylmethyl)-benzamide]
14 nM | O=C(NCC1(O)CCC(F)(F)CC1)c1cc(Oc2cc[nH]c(=O)n2)ccc1Cl [Example 118, 2-Chloro-N-(4,4-difluoro-1-hydroxy-cyclohexylmethyl)-5-(2-oxo-1,2-dihydro-pyrimidin-4-yloxy)-benzamide]
796 nM | O=C(NCC1(O)CCCCC1)c1cc(Oc2ccnc(=O)[nH]2)ccc1Cl [Example 119, 2-Chloro-N-(1-hydroxy-cyclohexylmethyl)-5-(2-oxo-2,3-dihydro-pyrimidin-4-yloxy)-benzamide]
111 nM | COc1nccc(Oc2ccc(Cl)c(C(=O)NCC3(O)CCCCC3)c2)n1 [Example 120, 2-Chloro-N-(1-hydroxy-cyclohexylmethyl)-5-(2-methoxy-pyrimidin-4-yloxy)-benzamide]
93 nM | O=C(NCC1(O)CCCCC1)c1cc(Oc2cnccn2)ccc1Cl [Example 121, 2-Chloro-N-(1-hydroxy-cyclohexylmethyl)-5-(pyrazin-2-yloxy)-benzamide]
101 nM | O=C(NCC1(O)CCCCC1)c1cc(Oc2cncc(Cl)n2)ccc1Cl [Example 122, 2-Chloro-5-(6-chloro-pyrazin-2-yloxy)-N-(1-hydroxy-cyclohexylmethyl)-benzamide]
123 nM | COc1cncc(Oc2ccc(Cl)c(C(=O)NCC3(O)CCCCC3)c2)n1 [Example 123, 2-Chloro-N-(1-hydroxy-cyclohexylmethyl)-5-(6-methoxy-pyrazin-2-yloxy)-benzamide]
163 nM | CNc1cncc(Oc2ccc(Cl)c(C(=O)NCC3(O)CCCCC3)c2)n1 [Example 124, 2-Chloro-N-(1-hydroxy-cyclohexylmethyl)-5-(6-methylamino-pyrazin-2-yloxy)-benzamide]
504 nM | CN(C)c1cncc(Oc2ccc(Cl)c(C(=O)NCC3(O)CCCCC3)c2)n1 [Example 125, 2-Chloro-5-(6-dimethylamino-pyrazin-2-yloxy)-N-(1-hydroxy-cyclohexylmethyl)-benzamide]
461 nM | O=C(NCC1(O)CCCCC1)c1cc(Oc2cncc(=O)[nH]2)ccc1Cl [Example 126, 2-Chloro-N-(1-hydroxy-cyclohexylmethyl)-5-(6-oxo-1,6-dihydro-pyrazin-2-yloxy)-benzamide]
58 nM | O=C(NCC1(O)CCCCC1)c1cc(Oc2ccc(Cl)nn2)ccc1Cl [Example 127, 2-Chloro-5-(6-chloro-pyridazin-3-yloxy)-N-(1-hydroxy-cyclohexylmethyl)-benzamide]
30 nM | COc1ccc(Oc2ccc(Cl)c(C(=O)NCC3(O)CCCCC3)c2)nn1 [Example 128, 2-Chloro-N-(1-hydroxy-cyclohexylmethyl)-5-(6-methoxy-pyridazin-3-yloxy)-benzamide]
80 nM | O=C(NCC1(O)CCCCC1)c1cc(Oc2ccc(=O)[nH]n2)ccc1Cl [Example 129, 2-Chloro-N-(1-hydroxy-cyclohexylmethyl)-5-(6-oxo-1,6-dihydro-pyridazin-3-yloxy)-benzamide]
67 nM | O=C(NCC1(O)CCCCC1)c1cc(Oc2cccnn2)ccc1Cl [Example 130, 2-Chloro-N-(1-hydroxy-cyclohexylmethyl)-5-(pyridazin-3-yloxy)-benzamide]

IC50 | Compound
206 nM | COc1cnnc(Oc2ccc(Cl)c(C(=O)NCC3(O)CCCCC3)c2)c1 [Example 131, 2-Chloro-N-(1-hydroxy-cyclohexylmethyl)-5-(5-methoxy-pyridazin-3-yloxy)-benzamide]
46 nM | O=C(NCC1(O)CCCCC1)c1cc(Sc2ccccn2)ccc1Cl [Example 132, 2-Chloro-N-(1-hydroxy-cyclohexylmethyl)-5-(pyridin-2-ylsulfanyl)-benzamide]
105 nM | O=C(NCC1(O)CCCCC1)c1cc(S(=O)(=O)c2ccccn2)ccc1Cl [Example 134, 2-Chloro-N-(1-hydroxy-cyclohexylmethyl)-5-(pyridine-2-sulfonyl)-benzamide]
266 nM | O=C(NCC1(O)CCCCC1)c1cc(Sc2ccnc(Cl)n2)ccc1Cl [Example 135, 2-Chloro-5-(2-chloro-pyrimidin-4-ylsulfanyl)-N-(1-hydroxy-cyclohexylmethyl)-benzamide]
8.1 nM | O=C(NCC1(O)CCCCC1)c1cc(Sc2cc[nH]c(=O)n2)ccc1Cl [Example 137, 2-Chloro-N-(1-hydroxy-cyclohexylmethyl)-5-(2-oxo-1,2-dihydro-pyrimidin-4-ylsulfanyl)-benzamide]
10 nM | O=C(NCC1(O)CCC(F)(F)CC1)c1cc(Sc2cc[nH]c(=O)n2)ccc1Cl [Example 138, 2-Chloro-N-(4,4-difluoro-1-hydroxy-cyclohexylmethyl)-5-(2-oxo-1,2-dihydro-pyrimidin-4-ylsulfanyl)-benzamide]
74 nM | COc1nccc(Sc2ccc(Cl)c(C(=O)NCC3(O)CCCCC3)c2)n1 [Example 139, 2-Chloro-N-(1-hydroxy-cyclohexylmethyl)-5-(2-methoxy-pyrimidin-4-ylsulfanyl)-benzamide]
3890 nM | COc1nccc(S(=O)(=O)c2ccc(Cl)c(C(=O)NCC3(O)CCCCC3)c2)n1 [Example 141, 2-Chloro-N-(1-hydroxy-cyclohexylmethyl)-5-(2-methoxy-pyrimidine-4-sulfonyl)-benzamide]
80 nM | O=C(NCC1(O)CCCCC1)c1cc(Cn2ccccc2=O)ccc1Cl [Example 142, 2-Chloro-N-(1-hydroxy-cyclohexylmethyl)-5-(2-oxo-2H-pyridin-1-ylmethyl)-benzamide]
377 nM | O=C(NCC1(O)CCCCC1)c1cc(Cn2cccnc2=O)ccc1Cl [Example 143, 2-Chloro-N-(1-hydroxy-cyclohexylmethyl)-5-(2-oxo-2H-pyrimidin-1-ylmethyl)-benzamide]
1390 nM | O=C(NCC1(O)CCCCC1)c1cc(Cn2ccc(=O)[nH]c2=O)ccc1Cl [Example 144, 2-Chloro-5-(2,4-dioxo-3,4-dihydro-2H-pyrimidin-1-ylmethyl)-N-(1-hydroxy-cyclohexylmethyl)-benzamide]
21 nM | O=C(NCC1(O)CCCCC1)c1cc(Cc2ccccn2)ccc1Cl [Example 145, 2-Chloro-N-(1-hydroxy-cyclohexylmethyl)-5-pyridin-2-ylmethyl-benzamide]
400 nM | CSc1nccc(Cc2ccc(Cl)c(C(=O)NCC3(O)CCCCC3)c2)n1 [Example 146, 2-Chloro-N-(1-hydroxy-cyclohexylmethyl)-5-(2-methylsulfanyl-pyrimidin-4-ylmethyl)-benzamide]
123 nM | O=C(NCC1(O)CCCCC1)c1cc(Cc2cc[nH]c(=O)n2)ccc1Cl [Example 147, 2-Chloro-N-(1-hydroxy-cyclohexylmethyl)-5-(2-oxo-1,2-dihydro-pyrimidin-4-ylmethyl)-benzamide]
343 nM | COc1nccc(Cc2ccc(Cl)c(C(=O)NCC3(O)CCCCC3)c2)n1 [Example 148, 2-Chloro-N-(1-hydroxy-cyclohexylmethyl)-5-(2-methoxy-pyrimidin-4-ylmethyl)-benzamide]
33 nM | O=C(NCC1(O)CCC(F)(F)CC1)c1cc(Cc2cc[nH]c(=O)n2)ccc1Cl [Example 149, 2-Chloro-N-(4,4-difluoro-1-hydroxy-cyclohexylmethyl)-5-(2-oxo-1,2-dihydro-pyrimidin-4-ylmethyl)-benzamide]
77 nM | O=C(c1ccc(Cl)c(C(=O)NCC2(O)CCCCC2)c1)c1cc[nH]c(=O)n1 [Example 150, 2-Chloro-N-(1-hydroxy-cyclohexylmethyl)-5-(2-oxo-1,2-dihydro-pyrimidine-4-carbonyl)-benzamide]
31 nM | O=C(NCC1(O)CCCCC1)c1cc(C(F)(F)c2cc[nH]c(=O)n2)ccc1Cl [Example 151, 2-Chloro-5-[difluoro-(2-oxo-1,2-dihydro-pyrimidin-4-yl)-methyl]-N-(1-hydroxy-cyclohexylmethyl)-benzamide]

Reference: patent US20140073651A1, “BENZAMIDE DERIVATIVES AS P2X7 RECEPTOR ANTAGONISTS” (Actelion Pharmaceuticals Ltd., priority 2011, published 2014)
